According to patent US20190046507A1, “COMPOUNDS FOR THE TREATMENT OF MALARIA” (Merck Sharp & Dohme Corp., priority 2016, published 2019):

What follows are compounds tested on asexual P. falciparum 3D7 parasites (assay: P. falciparum 3D7 growth inhibition assay with LDH activity readout (Assay 1)). Conditions: Plasmodium falciparum; 3D7 strain, 72 h incubation, LDH activity read by absorbance at 650 nm.
Type: cell-based
Method: A modified version of the assay described in Gamo, F. J., Sanz, L. M., Vidal, J., de Cozar, C., Alvarez, E., Lavandera, J. L., Vanderwall, D. E., Green, D. V., Kumar, V., Hasan, S., Brown, J. R., Peishoff, C. E., Cardon, L. R., Garcia-Bustos, J. F., Nature, 465 (2010) 305-310 (Gamo et al.) was used to assess the activity of compounds against asexual P. falciparum 3D7 parasites. Compounds were pre-dispensed in 384-well plates, RPMI/AlbuMAX growth media was added and P. falciparum inoculated. Plates were incubated for 72 h and then frozen at −80° C. overnight. LDH activity was quantified with the modified cofactor 3-acetylpyridine adenine dinucleotide (APAD) (Sigma Aldrich) by measuring absorbance of the tetrazolium indicator nitro blue tetrazolium (NBT) (Sigma Aldrich) at 650 nm.
An inoculum of synchronous P. falciparum (3D7 strain) parasitized red blood cells (PRBC) at 0.7% parasitaemia and 2% haematocrit in RPMI-1640, 5% AlbuMAX, 2% D-sucrose, 0.3% glutamine and 150 μM hypoxanthine was used for the assay.
Compound master plates (384-well) were prepared by a 10 pt serial dilution of compounds, from 1 mM to 50.8 nM, in columns 3-12 and 13-22. DMSO was dispensed into columns 1 and 23 of the compound master plate to be used as the positive growth control (100% viability). […] Intermediate compound dilution plates were prepared by dispensing 1 μl from each well of the compound master plate into 11.5 μl of RPMI/AlbuMAX growth media. Duplicate assay plates (384-well) were then prepared by dispensing 0.5 μL of compound from the intermediate dilution plates into 9.5 μl of RPMI/AlbuMAX growth media. The parasite inoculum (30 μL) was dispensed into the assay plates containing compounds using a Multidrop dispenser (Thermo Scientific) such that the final assay volume was 40 μL and final compound concentration was 1 μM-0.05 nM (the volume of compound addition can be adjusted to the preferred and agreed screening concentration). The final DMSO concentration was 0.1% (ideally 0.2% to limit toxicity to parasites), but this is dependent on volume of compound DMSO stock solution that can be supplied. Plates were incubated at 37° C. for 72 h in an atmosphere of 5% CO2, 5% O2, […].
After 72 h of incubation, plates were frozen at −80° C. overnight and then thawed at room temperature for at least 4 h. To evaluate LDH activity, 45 μL of freshly made reaction mix (174 mM sodium L-lactate (Sigma Aldrich), 214 μM 3-acetyl pyridine adenine dinucleotide (APAD) (Sigma Aldrich), 270 μM nitro blue tetrazolium chloride (NBT) (Sigma Aldrich), 4.35 U/mL diaphorase (from Clostridium kluyveri) (Sigma Aldrich), 0.7% Tween 20, 100 mM Tris-HCl pH 7.5) was dispensed using a Multidrop dispenser (Thermo Scientific). Plates were shaken to ensure mixing and absorbance at 650 nm was monitored using a Perkin Elmer Envision plate reader after 30 min of incubation at room temperature. Data were normalized to percent growth inhibition using positive and negative controls, and analysed using TIBCO Spotfire software. […]

| SMILES | IC50 [nM] |
| --- | --- |
| CC(=O)N1CCN(C(=O)c2cc(F)cc(CN3C(=N)NC(c4ccccc4)(c4ccccc4)C3=O)c2)CC1 [Compound 1] | 4.5 |
| N=C1NC(C[C@@H]2CCCO2)(c2ccccc2)C(=O)N1Cc1ccc(C(F)(F)F)c(C(=O)N2Cc3nccnc3C2)c1 (stereo partly shown) [Compound 2] | 5.8 |
| CC(C)CC[C@]1(c2ccccc2)NC(=N)N(Cc2ccc(C(F)(F)F)c(C(=O)N3CC(O)C(F)C3)c2)C1=O (stereo partly shown) [Compound 3] | 9.6 |
| N=C1NC(c2ccc(F)cc2)(C2CCCCC2)C(=O)N1Cc1ccc(C(F)(F)F)c(C(=O)N2Cc3nccnc3C2)c1 (stereo not shown) [Compound 4] | 9.7 |
| CC(C)CC[C@]1(c2ccccc2)NC(=N)N(Cc2ccc(C(C)(C)C)c(C(=O)N3CCn4ccnc4C3)c2)C1=O [Compound 5] | 21.2 |
| CC(C)CC[C@]1(c2ccccc2)NC(=N)N([C@@H]2CCc3ccc(C(=O)N4Cc5nccnc5C4)cc32)C1=O [Compound 6] | 21.8 |
| CC(C)CC[C@]1(c2ccccc2)NC(=N)N(Cc2ccc(C(C)(C)C)c(C(=O)N(C)C(C)c3ccncc3)c2)C1=O (stereo partly shown) [Compound 7] | 25.1 |
| CC(C)CC[C@]1(c2ccccc2)NC(=N)N(Cc2ccc(C(C)(C)C)c(C(=O)N3CCOC[C@@H]3C)c2)C1=O [Compound 8] | 56.6 |
| Cc1ccc([C@@]2(CC3CC3)NC(=N)N(Cc3ccc(C(C)(C)C)c(C(=O)N4CCC(C)(C)C4)c3)C2=O)cc1 [Compound 9] | 86.6 |
| CC(C)CC[C@]1(c2ccccc2)NC(=N)N(Cc2ccc(C(C)(C)C)c(C(=O)N(C)Cc3ccon3)c2)C1=O [Compound 10] | 120 |
| CC(C)CC[C@]1(c2ccccc2)NC(=N)N(Cc2ccc(C(C)(C)C)c(C(=O)NCc3cccnc3)c2)C1=O [Compound 11] | 172 |
| Cc1ccc(C2(C3CCCCC3)NC(=N)N(Cc3ccc(C(C)(C)C)c(C(=O)N4Cc5ccccc5C4)c3)C2=O)cc1 (stereo not shown) [Compound 12] | 221 |
| Cc1ccc(C2(c3ccc(C)cc3)NC(=N)N(Cc3ccc(C(C)(C)C)c(C(=O)N4Cc5nccnc5C4)c3)C2=O)cc1 [Compound 13] | 223 |
| Cc1ccc(C2(CCC(C)C)NC(=N)N(Cc3ccc(C(C)(C)C)c(C(=O)N4Cc5cncnc5C4)c3)C2=O)cc1 (stereo not shown) [Compound 14] | 225 |
| CC(C)(C)c1ccc(CN2C(=N)NC(c3ccccc3)(c3ccccc3)C2=O)cc1C(=O)N1Cc2nccnc2C1 [Compound 15] | 239 |
| Cc1ccc(CN2C(=N)NC(CC(C)C)(c3ccccc3)C2=O)cc1C(=O)NC1CC1 (stereo not shown) [Compound 16] | 240 |
| CC(C)CC[C@]1(c2ccccc2)NC(=N)N(Cc2ccc(C(C)(C)C)c(C(=O)N(C)Cc3noc(C4CC4)n3)c2)C1=O [Compound 17] | 310 |
| CCOC(=O)NC1CCN(C(=O)c2cc(C)cc(CN3C(=N)NC(c4ccccc4)(c4ccccc4)C3=O)c2)CC1 [Compound 18] | 313 |
| Cc1cc(CN2C(=N)NC(c3ccccc3)(c3ccccc3)C2=O)cc(C(=O)N2CCNC(=O)C2)c1 [Compound 20] | 356 |
